According to patent US8779129B2, “Triazinedione derivatives as GABAB receptor modulators” (Addex Pharma S.A., priority 2006, dated 2014):

Compound	melting point [°C]
CC(=O)Nc1cccc(-n2nc(CN(C)C)c(=O)n(Cc3ccc(Cl)cc3)c2=O)c1.Cl	143
CC(=O)Nc1cccc(-n2nc(C#N)c(=O)n(Cc3ccc(Cl)cc3)c2=O)c1 [1.01, N-(3-(4-(4-chlorobenzyl)-6-cyano-3,5-dioxo-4,5-dihydro-1,2,4-triazin-2(3H)-yl)phenyl)acetamide]	196
CC(=O)Nc1cccc(-n2ncc(=O)n(Cc3ccc(Cl)cc3)c2=O)c1 [2.01, N-(3-(4-(4-chlorobenzyl)-3,5-dioxo-4,5-dihydro-1,2,4-triazin-2(3H)-yl)phenyl)acetamide]	171 to 172
CC(=O)Nc1cccc(-n2ncc(=O)n(Cc3ccc(C#N)cc3)c2=O)c1 [2.05, N-(3-(4-(4-cyanobenzyl)-3,5-dioxo-4,5-dihydro-1,2,4-triazin-2(3H)-yl)phenyl)acetamide]	184 to 185
CC(=O)Nc1cccc(-n2ncc(=O)n(Cc3ccc(Cl)cc3F)c2=O)c1 [2.20, N-(3-(4-(4-chloro-2-fluorobenzyl)-3,5-dioxo-4,5-dihydro-1,2,4-triazin-2(3H)-yl)phenyl)acetamide]	184
CC(=O)Nc1cccc(-n2nc(C)c(=O)n(Cc3ccc(Cl)cc3)c2=O)c1 [3.01, N-(3-(4-(4-chlorobenzyl)-6-methyl-3,5-dioxo-4,5-dihydro-1,2,4-triazin-2(3H)-yl)phenyl)acetamide]	168
COc1nn(-c2cccc(NC(C)=O)c2)c(=O)n(Cc2ccc(Cl)cc2)c1=O [4.01, N-(3-(4-(4-chlorobenzyl)-6-methoxy-3,5-dioxo-4,5-dihydro-1,2,4-triazin-2(3H)-yl)phenyl)acetamide]	190 to 191
COc1nn(-c2cccc(NC(C)=O)c2)c(=O)n(Cc2ccc3c(c2)OC(F)(F)O3)c1=O [4.127, N-(3-(4-((2,2-difluorobenzo[d][1,3]dioxol-5-yl)methyl)-6-methoxy-3,5-dioxo-4,5-dihydro-1,2,4-triazin-2(3H)-yl)phenyl)acetamide]	184
COc1nn(-c2cccc(N(C)C(C)=O)c2)c(=O)n(Cc2ccc(Cl)cc2)c1=O [4.133, N-(3-(4-(4-chlorobenzyl)-6-methoxy-3,5-dioxo-4,5-dihydro-1,2,4-triazin-2(3H)-yl)phenyl)-N-methylacetamide]	157
COCC(=O)Nc1cccc(-n2nc(OC)c(=O)n(Cc3ccc(Cl)cc3)c2=O)c1 [4.141, N-(3-(4-(4-chlorobenzyl)-6-methoxy-3,5-dioxo-4,5-dihydro-1,2,4-triazin-2(3H)-yl)phenyl)-2-methoxyacetamide]	143
COc1nn(-c2ccccc2O)c(=O)n(Cc2ccc(Cl)cc2)c1=O [4.143, 4-(4-chlorobenzyl)-2-(2-hydroxyphenyl)-6-methoxy-1,2,4-triazine-3,5(2H,4H)-dione]	164 to 165
COc1nn(-c2cccc(Nc3nccs3)c2)c(=O)n(Cc2ccc(Cl)cc2)c1=O [4.144, 4-(4-chlorobenzyl)-6-methoxy-2-(3-(thiazol-2-ylamino)phenyl)-1,2,4-triazine-3,5(2H,4H)-dione]	176 to 178
COc1nn(-c2cccc(N3CCCC3=O)c2)c(=O)n(Cc2ccc(Cl)cc2)c1=O [4.145, 4-(4-chlorobenzyl)-6-methoxy-2-(3-(2-oxopyrrolidin-1-yl)phenyl)-1,2,4-triazine-3,5(2H,4H)-dione]	91 to 93
COc1nn(-c2cccc(-c3noc(C)n3)c2)c(=O)n(Cc2ccc(Cl)cc2)c1=O [4.146, 4-(4-chlorobenzyl)-6-methoxy-2-(3-(5-methyl-1,2,4-oxadiazol-3-yl)phenyl)-1,2,4-triazine-3,5(2H,4H)-dione]	163 to 165
CC(=O)Nc1cccc(-n2nc(C(C)C)c(=O)n(Cc3ccc(Cl)cc3)c2=O)c1 [5.01, N-(3-(4-(4-chlorobenzyl)-6-isopropyl-3,5-dioxo-4,5-dihydro-1,2,4-triazin-2(3H)-yl)phenyl)acetamide]	178
CC(=O)Nc1cccc(-n2nc(N(C)C)c(=O)n(Cc3ccc(Cl)cc3)c2=O)c1 [5.13, N-(3-(4-(4-chlorobenzyl)-6-(dimethylamino)-3,5-dioxo-4,5-dihydro-1,2,4-triazin-2(3H)-yl)phenyl)acetamide]	189 to 190
COCc1nn(-c2cccc(NC(C)=O)c2)c(=O)n(Cc2ccc(Cl)cc2)c1=O [5.16, N-(3-(4-(4-chlorobenzyl)-6-(methoxymethyl)-3,5-dioxo-4,5-dihydro-1,2,4-triazin-2(3H)-yl)phenyl)acetamide]	97
COC(=O)c1nn(-c2cccc(NC(C)=O)c2)c(=O)n(Cc2ccc(Cl)cc2)c1=O [5.17, Methyl 4-(4-chlorobenzyl)-2-(3-acetamidophenyl)-3,5-dioxo-2,3,4,5-tetrahydro-1,2,4-triazine-6-carboxylate]	193
CC(=O)Nc1cccc(-n2nc(C(=O)OC(C)C)c(=O)n(Cc3ccc(Cl)cc3)c2=O)c1 [5.18, Isopropyl 2-(3-acetamidophenyl)-4-(4-chlorobenzyl)-3,5-dioxo-2,3,4,5-tetrahydro-1,2,4-triazine-6-carboxylate]	183
